We go through 4 molecules from patent US6313170A, “L-threonate ferrous, as well as pharmaceutical composition and use for improving and treating human anemia thereof” (priority 1997, dated 2001).

One data set concerns lymphoma cells. As to conditions: cited from earlier work.
The subject of another data set is Blood-loss Anemia Model. The data set can be described thus: Blood-loss anemia model, rats.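 Also: male Wistar rats made anemic by repeated orbital bloodletting, kept on iron-low diet with deionized water while dosed, compared against untreated anemic model and normal-diet control groups.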 The settings on record: 8.64 mg Fe/kg (middle dosage / positive controls), n=10.
Another data set deals with Hemolytic Anemia Model. Kind of data set: Hemolytic anemia model (acetylphenylhydrazine), rats. In kind it is in vivo, male Wistar rats. The settings on record: 8.64 mg Fe/kg (middle dosage / positive control). Here is the method:
1. […] All drugs were diluted by distilled water.
2. […] Animal diet also was purchased from Beijing Medical University.
(1) Hemolytic Anemia Model: Hemolytic anemia model was prepared for rats by injecting reagent of acetylphenylhydrazine (C8 H10 N2 O, produced by Beijing Biochemical Company) subcutaneously. The drug acetyphenylhydrazine was mixed with physiological saline to get its injection solution of 4% by weight of acetyphenylhydrazine. The solution was injected subcutaneously into each rat with a dosage of 57 μg/g at the beginning of the experiments. The content of blood hemochrome for each rat was examined at 2 days and 4 days later, respectively. When the mean blood hemochrome decreased to about 6.11±0.25 g %, rats were randomly divided into 6 groups of 18 rats each. […] The forth groups was positive drug control groups. The fifth group and the sixth group were designed as model group and normal control group, respectively.

For data set [1] the following is noted: rat, in vivo, po, 2.5 mg/kg, 72 h. Here is the method:
Its chemical formula is Fe(C4 H7 O5)2.2H2 O, molecular weight:362.
Animals: Male Wistar rats were supplied by Experimental Animal Center, Tumor Institute of Heilongjian Province with body weight of 140 g-180 g. The iron-low diet contains iron 0.9 mg/kg.
50 rats were randomly divided into 5 groups of [19] 10 rats each. On this basis of administration of iron-low diet, each group of rats was administered respectively by gavage according to the dosage below:
High dosage group: Fe, 5 mg/kg, ferrous L-threonate, 32.32 mg/kg;
Middle dosage group: Fe, 2.5 mg/kg, ferrous L-threonate, 16.16 mg/kg;
Low dosage group: Fe, 1.0 mg/kg, ferrous L-threonate, 6.46 mg/kg;
Positive drug control group (ferrous sulfate): Fe, 2.5 mg/kg, ferrous sulfate, 12.43 mg/kg;
Negative drug control group (iron-low diet): Fe, 0.9 mg/kg (measured value).
After the end of 7 days feeding normal diet period, rats were supplemented with iron-low diet prepared according to AOAC formula for another 7 days. The 1-3 groups were treatment groups and supplemented with ferrous L-threonate 32.32 mg/kg (5 mgFe/kg, high dose group), 16.16 mg/kg (2.5 mg Fe/kg, middle dose group) and 6.46 mg/kg (1.0 mg Fe/kg, low dose group), respectively. The forth, positive drug control group, was provided with ferrous sulfate 12.43 mg/kg (2.5 mg Fe/kg). The fifth was model control group and was offered with iron-low diet (0.9 mg Fe/kg). Each groups were arranged to take drug one time by I.G (gavage) method per day and in the same time were supplemented with deionized water.
The test was sustained three days. Each rat's excrement was collected, dried at temperature 80-90° C., weighed and ground into 40-60 meshes. About 0.5 to 0.6 gram sample was taken and a mixture of nitric acid and perchloric acid at a ratio of 4:1 was added therein until completion of digestion. The constant volume is 10 ml. The iron content of excrement was determined by atomic absorption method and the iron absorptive rate for each rat can be calculated by the formula listed below. [formula]

In another data set the test system is IDA. The settings on record: in vivo; cited from earlier work.

Description for Blood-loss Anemia Model: Ferrous gluconate, the positive control drug, yellow-green powder and 11% ferrous content, was purchased from Ganjian Pharmaceutical Company of Jianxi Province. Ferrous fumarate, 6.4% ferrous content, was purchased from the 18th Pharmaceutical Company of Shanghai. All drugs were diluted by distilled water.
7 groups were prepared as hemolytic anemia groups and one group was taken as normal control group supplemented with normal diet and water. The hemolytic anemia model was prepared by subjecting rats to inner canthus bloodletting of right eye through capillary glass tube. The first bloodletting content was 2.0 ml for each rat and in that time the range of hemochrome for rats was from 9.78 to 10.65 g %. Two days later, the second bloodletting (2 ml/rat) was carried out with the hemochrome values of 7.40-7.88 g %. The total bloodletting volume for each rat was 4 ml and was 32.9% in volume of the whole blood circulating the body.
While one hemolytic anemia group and one normal control group were taken as reference groups compared with other groups left. These two groups' rats were killed and the blood parameters were recorded. Other six groups now were randomly divided into three treatment groups of ferrous L-threonate with high, middle and low dosages respectively, two positive drugs control groups of ferrous gluconate and ferrous fumarate and one model group. At the end of 12 days and 18 days experimental periods, 5 and 10 rats of each group were killed correspondingly. During the course of experiment, the variations of hemochrome content were examined with 6 days interval.
While Element ferrous content 8.64 mg/kg as ferrous gluconate or ferrous fumarate was for positive drug control group. The groups for blood-loss anemia were provided iron-low diet and deionized water during the period of the administration of drugs, while the normal animal control group was provided normal diet and deionized water.

On to `O=C(O)[C@H](O)[C@@H](O)CO` [Calcium L-threonate], for which the “uptake of vitamin C by the lymphoma cells” value with lymphoma cells is listed as “can improve uptake of vitamin C by the lymphoma cells”.

`O=C([O-])/C=C/C(=O)[O-].[Fe+2]` [Ferrous fumarate, reference compound]: the Blood hemochrome content is recorded as 7.80 ± 0.24 with Blood-loss Anemia Model (6 days after treatment), 10.12 ± 0.52 in the data set with Blood-loss Anemia Model (12 days after treatment), 11.84 ± 0.45 in the data set on Blood-loss Anemia Model (18 days after treatment) and 7.43 ± 0.85 with Blood-loss Anemia Model (before treatment). Further, the “GPC (blood granulophilocyte)” value with Blood-loss Anemia Model (12 days) worked out at 12.66%; in the data set on Blood-loss Anemia Model (18 days) it was 9.04%. Also, the RBC with Blood-loss Anemia Model (12 days) was 4.2e+12 L⁻¹; with Blood-loss Anemia Model (18 days), 5.14e+12 L⁻¹.

On to Ferrous gluconate [reference compound], for which the “Iron content of whole blood” value in the data set with Hemolytic Anemia Model came to 286.04 ± 26.797 µg/mL. In addition, the “Serum ferritin (SF)” value with Hemolytic Anemia Model was 20.14 ± 2.83 ng/mL. The hemoglobin content in the data set on Hemolytic Anemia Model (after anemia (before treatment)) turned out to be 6.57 g %; in the data set with Hemolytic Anemia Model (before anemia (baseline)) it was 15.34 g %; in the data set on Hemolytic Anemia Model (one week after treatment), 10.62 g %; in the data set on Hemolytic Anemia Model (two weeks after treatment) it was 12.65 g %. In addition, the Blood hemochrome content was determined as 7.95 ± 0.30 in the data set with Blood-loss Anemia Model (6 days after treatment), 10.50 ± 0.61 in the data set with Blood-loss Anemia Model (12 days after treatment), 11.80 ± 0.63 in the data set on Blood-loss Anemia Model (18 days after treatment) and 7.50 ± 0.76 in the data set on Blood-loss Anemia Model (before treatment). Also, the “GPC (blood granulophilocyte)” value in the data set on Blood-loss Anemia Model (12 days) is listed as 12.66%; in the data set on Blood-loss Anemia Model (18 days), 9.04%. The RBC in the data set with Blood-loss Anemia Model (12 days) was determined as 4.488e+12 L⁻¹; in the data set with Blood-loss Anemia Model (18 days), 5.14e+12 L⁻¹.

In turn, ferrous sulfate [reference compound] gave an Absorptivity in data set [1] of 42.00 ± 1.02%. The side effects entry in the data set on IDA was “limited because of its side effects”.
